Assay results taken from article PMC10728897, “High-Throughput Engineering of Nonribosomal Extension Modules” (ACS Chemical Biology, 2023).

Key:
TycC6 C-A-T tridomain = biological target: T1, TycC6 C-A-T tridomain (Brevibacillus parabrevis, UniProt O30409); assay: yeast surface display loading assay, click biotinylation, flow cytometry; assay type: cell-based; settings: 20 and 50 mM pGly, 0.1 mM ATP, 1 mM MgCl2, pH 7.4, 25 C; covalent loading on ppant of T domain; modest efficiency
T1 construct: gene tycC; ppant installed by Sfp
T1 sequence (O30409 5200-6255 limits assumed): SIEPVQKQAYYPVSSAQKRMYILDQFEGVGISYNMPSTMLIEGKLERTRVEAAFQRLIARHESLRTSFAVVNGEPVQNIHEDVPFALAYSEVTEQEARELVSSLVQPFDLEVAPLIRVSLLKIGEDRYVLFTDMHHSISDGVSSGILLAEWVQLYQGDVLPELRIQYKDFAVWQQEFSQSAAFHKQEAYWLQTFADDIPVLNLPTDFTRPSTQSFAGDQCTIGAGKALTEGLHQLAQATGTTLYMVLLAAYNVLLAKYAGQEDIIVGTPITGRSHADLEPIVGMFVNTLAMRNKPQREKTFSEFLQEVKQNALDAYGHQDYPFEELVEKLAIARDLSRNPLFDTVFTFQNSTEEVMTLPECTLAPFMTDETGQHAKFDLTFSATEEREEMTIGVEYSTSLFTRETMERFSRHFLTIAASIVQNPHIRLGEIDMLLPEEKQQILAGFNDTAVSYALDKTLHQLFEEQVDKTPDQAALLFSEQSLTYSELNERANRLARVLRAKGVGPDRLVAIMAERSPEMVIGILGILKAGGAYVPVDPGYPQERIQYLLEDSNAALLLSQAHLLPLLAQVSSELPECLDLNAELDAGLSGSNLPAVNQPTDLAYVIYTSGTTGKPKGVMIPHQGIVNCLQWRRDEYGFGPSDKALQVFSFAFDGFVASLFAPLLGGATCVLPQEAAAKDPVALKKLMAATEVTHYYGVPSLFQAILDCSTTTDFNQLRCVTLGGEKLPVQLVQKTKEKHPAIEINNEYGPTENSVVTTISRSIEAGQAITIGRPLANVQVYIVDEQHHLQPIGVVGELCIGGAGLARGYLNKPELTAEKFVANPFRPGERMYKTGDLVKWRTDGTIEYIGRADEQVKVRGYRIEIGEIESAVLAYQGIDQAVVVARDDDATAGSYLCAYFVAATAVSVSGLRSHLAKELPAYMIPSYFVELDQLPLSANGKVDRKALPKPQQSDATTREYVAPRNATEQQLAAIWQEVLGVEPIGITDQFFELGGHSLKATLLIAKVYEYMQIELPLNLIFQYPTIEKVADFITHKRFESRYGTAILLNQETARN

TycB2 A-T bidomain = biological target: T2, TycB2 A-T bidomain (Brevibacillus parabrevis, UniProt O30408, M1767A/M1802I, form not given); assay: as above; assay type: cell-based; settings: 0.5 mM pPhe with 0.5 mM L-Phe as competitor, 0.1 mM ATP, pH 7.4, 25 C; covalent loading on ppant of T domain
T2 construct: gene tycB; ppant installed by Sfp
T2 sequence (O30408 1530-2090 M1767A/M1802I, form open): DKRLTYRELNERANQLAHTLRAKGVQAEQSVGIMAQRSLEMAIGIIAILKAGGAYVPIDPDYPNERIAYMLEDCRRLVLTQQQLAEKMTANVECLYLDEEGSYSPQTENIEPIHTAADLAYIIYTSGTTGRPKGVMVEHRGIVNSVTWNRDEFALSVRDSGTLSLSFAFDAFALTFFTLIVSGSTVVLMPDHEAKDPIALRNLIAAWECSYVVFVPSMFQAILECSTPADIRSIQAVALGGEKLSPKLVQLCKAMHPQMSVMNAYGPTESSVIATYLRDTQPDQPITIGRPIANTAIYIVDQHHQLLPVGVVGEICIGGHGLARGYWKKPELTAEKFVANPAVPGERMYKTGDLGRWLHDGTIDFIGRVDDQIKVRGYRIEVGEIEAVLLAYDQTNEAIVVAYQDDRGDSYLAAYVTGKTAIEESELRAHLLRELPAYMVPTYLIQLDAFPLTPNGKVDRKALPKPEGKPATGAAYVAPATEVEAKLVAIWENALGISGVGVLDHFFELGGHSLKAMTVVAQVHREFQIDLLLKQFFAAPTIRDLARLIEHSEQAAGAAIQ

Row | SMILES | yeast surface display loading assay, click biotinylation, flow cytometry (TycC6 C-A-T tridomain) | yeast surface display loading assay, click biotinylation, flow cytometry (TycB2 A-T bidomain)
1 | C#CCC(N)C(=O)O (centres unmarked) [pGly, propargyl glycine] | the displayed module was found to activate pGly in a concentration-dependent manner | –
2 | C#CCOc1ccc(C[C@H](N)C(=O)O)cc1 [pPhe, 4-propargyloxy-L-phenylalanine] | – | the variant with the M1768A and M1803I mutations was the most active and selective
